According to patent US9725469B2, “Amino-oxazine and amino-dihydrothiazine compounds as beta-secretase modulators and methods of use” (Amgen Inc., priority 2012, dated 2017):

Columns and labels:
Cathepsin D = molecular target: T1, Cathepsin D (Homo sapiens, UniProt P07339); experiment: In vitro enzymatic Cat D (Cathepsin D) FRET assay; type: biochemical; settings: average IC50, pH 3.5
T1 construct: made in house; host or cells: CHO cells
Procedure: In Vitro Enzymatic Cat D (Cathepsin D) FRET (Fluorescence Resonance Energy Transfer) Assay
Recombinant CathepsinD was expressed in CHO cells. The assay buffer for CathepsinD is 0.05 M citrate pH 3.5, 10% DMSO final, 5 mM CHAPS. The CathepsinD enzyme (9 nM) is pre-incubated for one hour with inhibitors, typically in about 1 uL of DMSO according to a serial dilution, is added thereto. The assays are effectively started by the addition of different FRET substrates (20 nM for CathepsinD) and the combination is incubated for one hour. The FRET assay is terminated with by addition of Tris buffer, which raises the pH to neutrality, and the fluorescence is determined. The FRET substrate is a peptide with commercially available fluorophore and quencher, on opposite sides of the BACE cleavage site. The CathepsinD substrate peptide sequence is based on sequence #1 of Table 1 from Gulnik et al. FEBS Letters v413 p 379-384 1997. Proteolytic cleavage of the FRET substrate releases quenching of fluorescence (CathepsinD excitation 500 nm and emission 580 nm). […]

[1] = molecular target: BACE 1 (beta secretase enzyme) (Homo sapiens, UniProt P56817); experiment: In vitro enzymatic BACE FRET assay; type: biochemical; settings: average IC50, pH 4.2
Sequence of BACE 1 (beta secretase enzyme) (P56817 46-501): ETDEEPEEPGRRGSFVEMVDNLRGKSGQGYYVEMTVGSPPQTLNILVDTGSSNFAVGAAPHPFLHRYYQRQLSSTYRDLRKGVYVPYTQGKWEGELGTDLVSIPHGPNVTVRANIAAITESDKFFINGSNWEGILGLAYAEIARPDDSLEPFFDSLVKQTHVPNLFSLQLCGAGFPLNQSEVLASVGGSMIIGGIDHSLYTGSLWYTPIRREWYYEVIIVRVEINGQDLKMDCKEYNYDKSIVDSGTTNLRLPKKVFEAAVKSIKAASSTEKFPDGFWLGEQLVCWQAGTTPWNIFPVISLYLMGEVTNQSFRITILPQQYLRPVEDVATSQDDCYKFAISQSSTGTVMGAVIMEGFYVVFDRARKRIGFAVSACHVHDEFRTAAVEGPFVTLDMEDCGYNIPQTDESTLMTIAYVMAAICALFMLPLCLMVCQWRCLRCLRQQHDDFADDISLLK
Procedure: In Vitro Enzymatic BACE FRET (Fluorescence Resonance Energy Transfer) Assay
The assay buffer used in this screen is 0.05 M acetate, pH 4.2, 10% DMSO final, 100 uM genapol (which is a nonionic detergent, below its Critical Micelle Concentration). The beta secretase enzyme (0.2 nM) is pre-incubated for one hour with inhibitors, typically in about 1 uL of DMSO according to a serial dilution, are added thereto. This assay is effectively started by the addition of FRET substrate (50 nM) and the combination is incubated for one hour. The FRET assay is terminated with by addition of Tris buffer, which raises the pH to neutrality, and the fluorescence is determined. The FRET substrate is a peptide with commercially available fluorophore and quencher, on opposite sides of the BACE cleavage site. Proteolytic cleavage of the FRET substrate releases quenching of fluorescence (excitation […] and […]).

[2] = test system: Aβ40 in conditioned medium of cells stably expressing Amyloid Precursor Protein (APP); experiment: In vitro BACE cell-based assay (HEK cell assay, Aβ40 sandwich ELISA); settings: average IC50, Aβ40, 24 h incubation
Procedure: In Vitro BACE Cell-Based Assay
The cell-based assay measures inhibition or reduction of Aβ40 in conditioned medium of test compound treated cells expressing amyloid precursor protein.
Cells stably expressing Amyloid Precursor Protein (APP) were plated at a density of 40K cells/well in 96 well plates (Costar). The cells were cultivated for 24 hours at 37° C. and 5% CO2 in DMEM supplemented with 10% FBS. The test compounds were then added to cells in 10-point dose response concentrations with the starting concentration being either 100 μM or 10 μM. The compounds were diluted from stock solutions in DMSO and the final DMSO concentration of the test compounds on cells was 0.1%. After 24 h of incubation with the test compounds the supernatant conditioned media was collected and the Aβ 40 levels were determined using a sandwich ELISA. The IC50 of the compound was calculated from the percent of control or percent inhibition of Aβ 40 as a function of the concentration of the test compound.
The sandwich ELISA to detect Aβ 40 was performed in 96 well microtiter plates, which were pre-treated with goat anti-rabbit IgG (Pierce). The capture and detecting antibody pair that were used to detect Aβ 40 from cell supernatants were affinity purified pAb40 (Biosource) and biotinylated 6E10 (Signet Labs Inc.), respectively. The optimal concentration for the pAb40 antibody was 3 μg/ml in Superblock/TBS (Pierce) that was supplemented with 0.05% Tween 20 (Sigma). Optimal concentration for the detection antibody 6E10-biotinylated was 0.5 μg/ml in Superblock/TBS (Pierce) that had been supplemented with 2% normal goat serum and 2% normal mouse serum.
Cellular supernatants were incubated with the capture antibody for 3 h at 4° C., followed by 3 wash steps in TBS-tween (0.05%). The detecting antibody incubation was for 2 h at 4° C., again followed by the wash steps as described previously. The final readout of the ELISA is Time-Resolved Fluorescence (counts per minute) using Delfia reagents Streptavidin-Europium and Enhancement solutions (Perkin Elmer) and the Victor 2 multilabel counter (Perkin Elmer).

Abeta 40 = experiment: In vivo inhibition of beta-secretase: Abeta 40 reduction in rat CSF and brain; settings: after 4 hrs; for % reduction of rat CSF Abeta 40 levels at 10 mpk: Abeta 40, rat CSF; for % reduction of rat brain levels at 10 mpk: Abeta 40, rat brain
Description: In Vivo Inhibition of Beta-Secretase
Several animal models, including mouse, rat, dog, and monkey, may be used to screen for inhibition of beta-secretase activity in vivo following administration of a test compound sample. Animals used in this invention can be wild type, transgenic, or gene knockout animals. For example, the Tg2576 mouse model, prepared and conducted as described in Hsiao et al., 1996, Science 274, 99-102, and other non-transgenic or gene knockout animals are useful to analyze in vivo inhibition of Amyloid beta peptide (Abeta) production in the presence of inhibitory test compounds. Generally, 2 to 18 month old Tg2576 mice, gene knockout mice or non-transgenic animals are administered test compounds formulated in vehicles, such as cyclodextran, phosphate buffers, hydroxypropyl methylcellulose or other suitable vehicles. One to twenty-four hours following the administration of compound, animals are sacrificed, and brains as well as cerebrospinal fluid (CSF) and plasma are removed for analysis of A-beta levels and drug or test compound concentrations (Dovey et al., 2001, Journal of Neurochemistry, 76, 173-181) Beginning at time 0, animals are administered by oral gavage, or other means of delivery such as intravenous injection, an inhibitory test compound of up to 100 mg/kg in a standard, conventional formulation, such as 2% hydroxypropyl methylcellulose, 1% Tween80. A separate group of animals receive 2% hydroxypropyl methylcellulose, 1% Tween80 alone, containing no test compound, and serve as a vehicle-control group. At the end of the test period, animals are sacrificed and brain tissues, plasma or cerebrospinal fluid are collected. Brains are either homogenized in 10 volumes (w/v) of 0.2% diethylamine (DEA) in 50 mM NaCl (Best et al., 2005, Journal of Pharmacology and Experimental Therapeutics, 313, 902-908), or in 10 volumes of 0.5% TritonX-100 in Tris-buffered saline (pH at about 7.6). Homogenates are centrifuged at 355,000 g, 4° C. for 30 minutes. CSF or brain supernatants are then analyzed for the presence of A-beta peptide by specific sandwich ELISA assays based on ECL (Electrochemiluminescence) technology. For example, rat Abeta40 is measured using biotinylated-4G8 (Signet) as a capture antibody and Fab40 (an in-house antibody specific to the C-terminal of Abeta40) as a detection antibody. For example, 4 hours after administration of 30 mg/kg oral dose of the test compound in 2% hydroxypropyl methylcellulose, 1% Tween80 (pH2.2) to 200 g male Sprague Dawley rats, amyloid beta peptide levels are measured for reduction by X % and Y % in cerebrospinal fluid and brain, respectively, when compared to the levels measured in the vehicle-treated rats.
Actual vehicles used: Oral: 2% HPMC, 1% Tween80, pH 2.2
The compounds of the invention may be shown to reduce the formation and/or deposition of amyloid beta peptide in the cerebrospinal fluid (CSF) as well as in the brain of a mouse or rat at either 3 mpk, 10 mpk or 30 mpk (mpk=mg compound per kg weight of the animal) dosing concentrations after 4 hrs.

T1 sequence (P07339 65-412, species assumed): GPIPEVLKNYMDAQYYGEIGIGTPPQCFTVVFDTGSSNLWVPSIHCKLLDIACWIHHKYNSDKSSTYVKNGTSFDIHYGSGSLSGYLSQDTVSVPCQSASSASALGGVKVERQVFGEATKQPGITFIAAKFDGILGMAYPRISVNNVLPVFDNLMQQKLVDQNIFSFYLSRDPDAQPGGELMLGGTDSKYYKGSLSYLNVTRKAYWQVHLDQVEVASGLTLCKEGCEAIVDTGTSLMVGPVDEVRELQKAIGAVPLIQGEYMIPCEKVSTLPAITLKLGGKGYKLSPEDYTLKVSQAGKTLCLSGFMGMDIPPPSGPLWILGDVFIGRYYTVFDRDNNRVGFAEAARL

| Structure (SMILES) | IC50 (Cathepsin D) | IC50 [1] | IC50 ([2]; Homo sapiens, HEK293) | IC50 [2] | % reduction of rat CSF Abeta 40 levels at 10 mpk (Abeta 40) | % reduction of rat brain levels at 10 mpk (Abeta 40) |
| --- | --- | --- | --- | --- | --- | --- |
| COc1cnc2c(Nc3ccc4c(c3)[C@@]3(CCOC(N)=N3)c3cc(C5=CCOCC5)ncc3O4)ccnc2c1 [Example 33] |  | 0.0194 µM |  | 0.0004 µM |  |  |
| Cc1nc2c(Nc3ccc4c(c3)[C@@]3(CCOC(N)=N3)c3cc(C5=CCOCC5)ncc3O4)nccc2s1 [Example 44, (5S)-3-(3,6-dihydro-2H-pyran-4-yl)-N~7~-(2-methyl[1,3]thiazolo[4,5-c]pyridin-4-yl)-5′,6′-dihydrospiro[chromeno[2,3-c]pyridine-5,4′-[1,3]oxazine]-2′,7-diamine] | 400 µM | 0.0053 µM | 0.0041 µM |  |  |  |
| COc1cnc2c(Nc3ccc4c(c3)[C@@]3(CCOC(N)=N3)c3cc(C5CC5)ncc3O4)nccc2n1 [Example 42, (5S)-3-cyclopropyl-N~7~-(2-methoxypyrido[3,4-b]pyrazin-5-yl)-5′,6′-dihydrospiro[chromeno[2,3-c]pyridine-5,4′-[1,3]oxazine]-2′,7-diamine] | 400 µM | 0.0069 µM | 0.0026 µM |  |  |  |
| COc1cnc2c(Nc3ccc4c(c3)[C@@]3(CCOC(N)=N3)c3cc(C5=CCOCC5)ncc3O4)nccc2c1 [Example 43, (5S)-3-(3,6-dihydro-2H-pyran-4-yl)-N~7~-(3-methoxy-1,7-naphthyridin-8-yl)-5′,6′-dihydrospiro[chromeno[2,3-c]pyridine-5,4′-[1,3]oxazine]-2′,7-diamine] | 400 µM | 0.0148 µM | 0.0026 µM |  |  |  |
| C=C(C)c1cc2c(cn1)Oc1ccc(Nc3nccc4cc(OC)cnc34)cc1[C@@]21CCOC(N)=N1 [Example 37, (5S)-N~7~-(3-methoxy-1,7-naphthyridin-8-yl)-3-(1-methylethenyl)-5′,6′-dihydrospiro[chromeno[2,3-c]pyridine-5,4′-[l,3]oxazine]-2′,7-diamine] | 546 µM | 0.0178 µM | 0.0038 µM |  | 38% | 32% |

Now from value to compound, other results behind:

| IC50 (Cathepsin D) | IC50 [1] | IC50 ([2]; Homo sapiens, HEK293) | Structure (SMILES) | IC50 [2] | % reduction of rat CSF Abeta 40 levels at 10 mpk (Abeta 40) | % reduction of rat brain levels at 10 mpk (Abeta 40) |
| --- | --- | --- | --- | --- | --- | --- |
| 400 µM | 0.0156 µM | 0.138 µM | COc1cnc2c(Nc3ccc4c(c3)[C@@]3(CCSC(N)=N3)c3cc(-c5ccnc(OC(C)C)c5)nc(F)c3O4)nccc2c1 [Example 40, (5S)-1-fluoro-N~7~-(3-methoxy-1,7-naphthyridin-8-yl)-3-(2-(1-methylethoxy)-4-pyridinyl)-5′,6′-dihydrospiro[chromeno[2,3-c]pyridine-5,4′-[1,3]thiazine]-2′,7-diamine] |  |  |  |
| 338 µM | 0.0032 µM | 0.0123 µM | COc1cnc2c(Nc3ccc4c(c3)[C@@]3(CCSC(N)=N3)c3cc(-c5ccnc(F)c5)nc(F)c3O4)nccc2c1 [Example 39, (5S)-1-fluoro-3-(2-fluoro-4-pyridinyl)-N~7~-(3-methoxy-1,7-naphthyridin-8-yl)-5′,6′-dihydrospiro[chromeno[2,3-c]pyridine-5,4′-[1,3]thiazine]-2′,7-diamine] |  |  |  |
| 133 µM | 0.0113 µM | 0.0027 µM | COc1cnc2c(Nc3ccc4c(c3)[C@@]3(CCOC(N)=N3)c3cc(C(C)C)ncc3O4)nccc2c1 [Example 36, (5S)-N~7~-(3-methoxy-1,7-naphthyridin-8-yl)-3-(1-methylethyl)-5′,6′-dihydrospiro[chromeno[2,3-c]pyridine-5,4′-[l,3]oxazine]-2′,7-diamine] |  | 58% | 19% |
| 400 µM | 0.0032 µM | 0.016 µM | COc1cnc2c(Nc3ccc4c(c3)[C@@]3(CCSC(N)=N3)c3cc(-c5cncc(F)c5)nc(F)c3O4)nccc2c1 [Example 41, (5S)-1-fluoro-3-(5-fluoro-3-pyridinyl)-N~7~-(3-methoxy-1,7-naphthyridin-8-yl)-5′,6′-dihydrospiro[chromeno[2,3-c]pyridine-5,4′-[1,3]thiazine]-2′,7-diamine] |  |  |  |
| 373 µM | 0.0044 µM | 0.0033 µM | COc1cnc2c(Nc3ccc4c(c3)[C@@]3(CCSC(N)=N3)c3cc(C5=CCOCC5)nc(F)c3O4)nccc2c1 [Example 32, (5S)-3-(3,6-dihydro-2H-pyran-4-yl)-1-fluoro-N~7~-(3-methoxy-1,7-naphthyridin-8-yl)-5′,6′-dihydrospiro[chromeno[2,3-c]pyridine-5,4′-[1,3]thiazine]-2′,7-diamine] |  | 71% | 47% |
| 313 µM | 0.0043 µM | 0.0053 µM | COc1cnc2c(Nc3ccc4c(c3)[C@@]3(CCSC(N)=N3)c3cc(C5=CCCOC5)nc(F)c3O4)nccc2c1 [Example 31, (5S)-3-(5,6-dihydro-2H-pyran-3-yl)-1-fluoro-N~7~-(3-methoxy-1,7-naphthyridin-8-yl)-5′,6′-dihydrospiro[chromeno[2,3-c]pyridine-5,4′-[1,3]thiazine]-2′,7-diamine] |  |  |  |
| 400 µM | 0.0972 µM | 0.0353 µM | COc1cnc2c(Nc3ccc4c(c3)[C@@]3(CCOC(N)=N3)c3cc(Cl)nc(F)c3O4)nccc2c1 [Example 35, (5S)-3-chloro-1-fluoro-N-~7~-(3-methoxy-1,7-naphthyridin-8-yl)-5′,6′-dihydrospiro[chromeno[2,3-c]pyridine-5,4′-[1,3]oxazine]-2′,7-diamine] |  |  |  |
